In brackets after ≈: the same amount, converted by molar mass. Read-outs that look alike come from different tables or passages of the source.
How the values were obtained:
hTRPV3 = hTRPV3 (Homo sapiens (Human), UniProt Q8NET8); assay: Whole-cell patch clamp, hTRPV3 Phase 1 / Phase 2 currents; type: cell-based
Method in brief: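 Currents are activated by 20 μM 2-APB or by perfusate at 28 °C or warmer, in Ringer's solution, and quantified at ±80 mV.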

[1] = Aqueous solubility assay in Normal Ringer Solution; conditions: Normal Ringer Solution; for solubility at 40 min: saline or isotonic, kinetic from dmso stock; for Solubility Ringer (nM): room temperature
Protocol: Following vortex and incubation for a sufficient time (e.g. 40 minutes at room temperature), solutions were filtered, quenched with acetonitrile, and analyzed by Liquid Chromotography. Solubility Limits were determined by comparison to a standard curve.

[2] = Metabolic Stability assay, rat liver microsomes; type: in vitro ADME
Protocol: Metabolic Stability assay: The metabolic stability was determined by adding compound dissolved in DMSO to human or rat, liver microsomes. Briefly, assays were run with a starting concentration of 1 μM test article. The reaction was started by addition of NADPH regeneration components at 37° C. at which time an aliquot was immediately quenched in ice-cold acetonitrile/MeOH/H2O solution. Reaction mixture was incubated at 37° C. on a shaker, and additional aliquots were taken at 7, 15, 30 and 60 minutes. Following quench and centrifugation, samples were analyzed on HPLC/MS/MS.

[3] = Phase 1 current, inward, whole-cell patch clamp, read-out: hTRPV3 Patch P1 Inwd
[4] = Phase 1 current, read-out: hTRPV3 (nM) (Phase 1)
[5] = Phase 2 current, inward, whole-cell patch clamp, read-out: hTRPV3 Patch P2 Inwd
[6] = Phase 2 current, read-out: hTRPV3 (nM) (Phase 2)
[7] = Phase 1 current, human TRPV3, read-out: hTRPV3 (nM) Phase 1

Chain of hTRPV3 (Q8NET8 whole entry): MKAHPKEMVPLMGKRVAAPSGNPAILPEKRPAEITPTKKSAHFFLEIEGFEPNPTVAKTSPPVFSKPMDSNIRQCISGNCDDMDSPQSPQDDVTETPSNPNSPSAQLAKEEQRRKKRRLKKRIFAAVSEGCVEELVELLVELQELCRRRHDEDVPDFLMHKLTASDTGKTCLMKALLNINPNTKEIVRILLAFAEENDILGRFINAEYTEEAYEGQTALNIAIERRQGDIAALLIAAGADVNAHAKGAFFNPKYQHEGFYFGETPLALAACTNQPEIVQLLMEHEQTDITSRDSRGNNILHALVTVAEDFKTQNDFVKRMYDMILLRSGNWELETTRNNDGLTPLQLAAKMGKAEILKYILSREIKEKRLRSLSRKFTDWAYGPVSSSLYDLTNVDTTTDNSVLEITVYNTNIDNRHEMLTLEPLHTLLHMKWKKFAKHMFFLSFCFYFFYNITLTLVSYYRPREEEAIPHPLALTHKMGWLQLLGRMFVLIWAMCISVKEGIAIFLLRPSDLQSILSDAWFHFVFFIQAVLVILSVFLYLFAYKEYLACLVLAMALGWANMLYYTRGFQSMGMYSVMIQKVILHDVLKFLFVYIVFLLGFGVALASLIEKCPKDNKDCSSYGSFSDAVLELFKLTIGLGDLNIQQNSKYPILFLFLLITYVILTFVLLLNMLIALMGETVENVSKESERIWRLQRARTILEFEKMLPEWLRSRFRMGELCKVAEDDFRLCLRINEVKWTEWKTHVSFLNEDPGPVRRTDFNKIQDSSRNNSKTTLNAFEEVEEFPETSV

Row | Structure (SMILES) | IC50 (hTRPV3; [3]) [nM] | IC50 (hTRPV3; [4]) [nM] | IC50 (hTRPV3; [5]) [nM] | IC50 (hTRPV3; [6]) [nM] | solubility at 40 min [1] [µM] | half-life at 1 μM ([2]; read-out: LM T1/2 (min) (rat)) | IC50 (hTRPV3; [7]) [nM] | half-life at 1 μM ([2]; read-out: LM T1/2 (min) rat) [min] | IC50 (hTRPV3; hTRPV3 Patch P1 Inwd (nM)) [nM] | IC50 (hTRPV3; read-out: hTRPV3 (nM) (Phase 1)) | Solubility Ringer (nM) [1] | IC50 (hTRPV3; Phase 2 current, human TRPV3, read-out: hTRPV3 (nM) Phase 2) [nM]
1 | COCc1ccccc1-c1ccc(N2CC[C@H](Oc3ccc(C(F)(F)F)cn3)C2)c(CO)c1 [Compound 1-160, (S)-(2′-(methoxymethyl)-4-(3-(5-(trifluoromethyl)pyridin-2-yloxy)pyrrolidin-1-yl)biphenyl-3-yl)methanol] | 10 to 100 | 71.6 | 100 to 1000 | 106 | ~0.4 (≈ 0.183 µg/mL) | 19.1 | – | – | – | – | – | –
2 | CCc1cc(C)ccc1-c1ccc(C2CCN(C(=O)c3ccc(Cl)cn3)C2)c(CO)c1 (stereo not drawn) [Compound 2-66, (5-chloropyridin-2-yl)(3-(2′-ethyl-3-(hydroxymethyl)-4′-methylbiphenyl-4-yl)pyrrolidin-1-yl)methanone] | 10 to 100 | – | – | – | ~1.9 (≈ 0.826 µg/mL) | – | 16.5 | 24.9 | – | – | – | –
3 | CC(C)c1ccccc1Oc1ccc(N2CC[C@H](Oc3ncccc3Cl)C2)c(CCO)c1 [Compound 1-327, (S)-2-(2-(3-(3-chloropyridin-2-yloxy)pyrrolidin-1-yl)-5-(2-isopropylphenoxy)phenyl)ethanol] | – | – | – | – | – | 14.6 | – | – | 10 to 100 | 15.9 | BLQ | –
4 | Cc1ccc(O[C@H]2CCN(c3ccc(-c4ccccc4)cc3CO)C2)nc1 [Compound 1-141, (S)-(4-(3-(5-methylpyridin-2-yloxy)pyrrolidin-1-yl)biphenyl-3-yl)methanol] | 100 to 1000 | 125 | – | – | ~0.97 (≈ 0.35 µg/mL) | 38.4 | – | – | – | – | – | –
5 | CCc1ccccc1Oc1ccc(N2CC[C@H](OCc3ncccc3C)C2)c(CO)c1 [Compound 1-398] | – | 187 | – | 64.8 | ~1.4 (≈ 0.586 µg/mL) | 5.19 | – | – | – | – | – | –
6 | OCCOc1cc(-c2ccccc2)ccc1N1CC[C@@H](Oc2ccc(C(F)(F)F)cn2)C1 [Compound 1-117, (R)-2-(4-(3-(5-(trifluoromethyl)pyridin-2-yloxy)pyrrolidin-1-yl)biphenyl-3-yloxy)ethanol] | > 1000 | 1920 | 100 to 1000 | 486 | ~2 (≈ 0.889 µg/mL) | 79.8 | – | – | – | – | – | –
7 | COc1cnc(C(=O)N2CCC(c3ccc(-c4ccccc4C4CC4)cc3CO)C2)cn1 (stereo not drawn) [Compound 2-107] | 10 to 100 | – | – | – | 9.25 (≈ 3.97 µg/mL) | – | 31.5 | 25.7 | – | – | – | –
8 | O=C(c1ccc(F)cc1)c1ccc(N2CC[C@H](Oc3ncccc3Cl)C2)c(CO)c1 [Compound 1-279, (S)-(4-(3-(3-chloropyridin-2-yloxy)pyrrolidin-1-yl)-3-(hydroxymethyl)phenyl)(4-fluorophenyl)methanone] | 10 to 100 | 56.9 | – | – | 1.2 (≈ 0.512 µg/mL) | 18.4 | – | – | – | – | – | –
9 | CCc1ccccc1-c1ccc(C2CCN(C(=O)c3ccc(OC)cn3)C2)c(CO)c1 (stereo not drawn) [Compound 2-73, (3-(2′-ethyl-3-(hydroxymethyl)biphenyl-4-yl)pyrrolidin-1-yl)(5-methoxypyridin-2-yl)methanone] | 10 to 100 | – | – | – | > 26.2 | – | 20.5 | 9.84 | – | – | – | –
10 | CC(C)c1ccccc1-c1ccc(C2CCN(C(=O)c3ccc(Cl)cn3)C2)c(C(N)=O)c1 (stereo not drawn) [Compound 2-35] | 10 to 100 | – | 10 to 100 | – | ~3.3 (≈ 1.48 µg/mL) | – | 61.7 | 7.16 | – | – | – | 64.3
11 | CC(=O)c1ccccc1-c1ccc(N2CC[C@H](Oc3ccc(C(F)(F)F)cn3)C2)c(CO)c1 [Compound 1-157, (S)-1-(3′-(hydroxymethyl)-4′-(3-(5-(trifluoromethyl)pyridin-2-yloxy)pyrrolidin-1-yl)biphenyl-2-yl)ethanone] | 100 to 1000 | 211 | – | – | ~1.8 (≈ 0.822 µg/mL) | 17.5 | – | – | – | – | – | –
12 | OCc1cc(Oc2ccccc2F)ccc1N1CC[C@H](Oc2ncccc2Cl)C1 [Compound 1-270, (S)-(2-(3-(3-chloropyridin-2-yloxy)pyrrolidin-1-yl)-5-(2-fluorophenoxy)phenyl)methanol] | < 10 | 9.39 | < 10 | 7.44 | 1 (≈ 0.415 µg/mL) | 24.3 | – | – | – | – | – | –
13 | CCc1ccccc1Oc1ccc(N2CC[C@H](Nc3ncccc3Cl)C2)c(CO)c1 [Compound 1-380, (S)-(2-(3-(3-chloropyridin-2-ylamino)pyrrolidin-1-yl)-5-(2-ethylphenoxy)phenyl)methanol] | 10 to 100 | 25.6 | – | – | – | 20.9 | – | – | – | – | BLQ | –
14 | CC(C)c1ccccc1-c1ccc(C2CCN(C(=O)c3ccc(Cl)cn3)C2)c(CO)c1 (stereo not drawn) [Compound 2-30] | < 10 | – | – | – | ~3.7 (≈ 1.61 µg/mL) | – | 2.68 | 13.9 | – | – | – | –
15 | Cc1ccc(C(=O)c2ccc(N3CC[C@H](Oc4ncccc4Cl)C3)c(CO)c2)cc1 [Compound 1-277, (S)-(4-(3-(3-chloropyridin-2-yloxy)pyrrolidin-1-yl)-3-(hydroxymethyl)phenyl)(p-tolyl)methanone] | 10 to 100 | 63 | – | – | 0.47 (≈ 0.199 µg/mL) | 15.7 | – | – | – | – | – | –
16 | CCc1ccccc1-c1ccc(C2CCN(C(=O)c3ccc(Cl)cn3)C2)c(CO)c1 (stereo not drawn) [Compound 2-51, (5-chloropyridin-2-yl)(3-(2′-ethyl-3-(hydroxymethyl)biphenyl-4-yl)pyrrolidin-1-yl) methanone] | < 10 | – | – | – | ~5.3 (≈ 2.23 µg/mL) | – | 7.37 | 14.4 | – | – | – | –
17 | CCc1ccccc1C(=O)c1ccc(N2CC[C@H](Oc3ncccc3Cl)C2)c(CO)c1 [Compound 1-256, (S)-(4-(3-(3-chloropyridin-2-yloxy)pyrrolidin-1-yl)-3-(hydroxymethyl)phenyl)(2-ethylphenyl)methanone] | 10 to 100 | 50.9 | – | – | ~0.45 (≈ 0.197 µg/mL) | 6.05 | – | – | – | – | – | –
18 | Cc1ccccc1C(O)c1ccc(N2CC[C@H](Oc3ncccc3Cl)C2)c(CO)c1 (stereo partly drawn) [Compound 1-247, (4-((S)-3-(3-chloropyridin-2-yloxy)pyrrolidin-1-yl)-3-(hydroxymethyl)phenyl)(o-tolyl)methanol] | 100 to 1000 | 132 | 100 to 1000 | 202 | > 9 | 13.1 | – | – | – | – | – | –
19 | CCc1ccccc1Oc1ccc(N2CC[C@H](Oc3ncccc3F)C2)c(CO)c1 [Compound 1-267, (S)-(5-(2-ethylphenoxy)-2-(3-(3-fluoropyridin-2-yloxy)pyrrolidin-1-yl)phenyl)methanol] | 10 to 100 | 19.1 | – | – | ~0.38 (≈ 0.155 µg/mL) | 30.6 | – | – | – | – | – | –
20 | CC(C)c1ccccc1-c1ccc([C@@H]2CCN(C(=O)c3ccc(F)cn3)C2)c(CO)c1 [Compound 2-77] | < 10 | – | – | – | > 15.5 | – | 2.27 | 9.14 | – | – | – | –
21 | OCc1cc(C(O)c2ccccc2Cl)ccc1N1CC[C@H](Oc2ncccc2F)C1 (stereo partly drawn) [Compound 1-264, (2-chlorophenyl)(4-((S)-3-(3-fluoropyridin-2-yloxy)pyrrolidin-1-yl)-3-(hydroxymethyl)phenyl)methanol] | 10 to 100 | 54.1 | 10 to 100 | 79.3 | > 13.2 | 19.4 | – | – | – | – | – | –
22 | Cc1ccccc1C(=O)c1ccc(N2CC[C@H](Oc3ncccc3Cl)C2)c(CO)c1 [Compound 1-246, (S)-(4-(3-(3-chloropyridin-2-yloxy)pyrrolidin-1-yl)-3-(hydroxymethyl)phenyl)(o-tolyl)methanone] | 100 to 1000 | 136 | 100 to 1000 | 136 | ~1.87 (≈ 0.791 µg/mL) | 7.36 | – | – | – | – | – | –
23 | CC(C)c1ccccc1-c1ccc([C@H]2CCN(C(=O)c3ccc(F)cn3)C2)c(CO)c1 [Compound 2-78] | 100 to 1000 | – | – | – | > 15.4 | – | 234 | 12.1 | – | – | – | –
24 | OCCOc1cc(-c2ccccc2Cl)ccc1N1CC[C@H](Oc2ccc(C(F)(F)F)cn2)C1 [Compound 1-133, (S)-2-(2′-chloro-4-(3-(5-(trifluoromethyl)pyridin-2-yloxy)pyrrolidin-1-yl)biphenyl-3-yloxy)ethanol] | > 1000 | 1120 | – | – | 0.56 (≈ 0.268 µg/mL) | 55 | – | – | – | – | – | –
25 | CCc1c(C)cccc1-c1ccc(C2CCN(C(=O)c3ccc(Cl)cn3)C2)c(CO)c1 (stereo not drawn) [Compound 2-67, (5-chloropyridin-2-yl)(3-(2′-ethyl-3-(hydroxymethyl)-3′-methylbiphenyl-4-yl)pyrrolidin-1-yl)methanone] | < 10 | – | – | – | ~3.6 (≈ 1.57 µg/mL) | – | 0.698 | 8.47 | – | – | – | –
26 | NC(=O)c1cc(-c2ccccc2)ccc1N1CC[C@H](Nc2ncccc2Cl)C1 [Compound 1-377, (S)-4-(3-(3-chloropyridin-2-ylamino)pyrrolidin-1-yl)biphenyl-3-carboxamide] | 100 to 1000 | 360 | 100 to 1000 | 318 | > 3.2 | 35.6 | – | – | – | – | – | –

From US12435061B2 (priority 2020, dated 2025)
